Assays:
[1] = target: Delta-type opioid receptor (Homo sapiens) (UniProt P41143); settings: Compound concentration 10.0 uM
[2] = target: Histamine H3 receptor (Homo sapiens) (UniProt Q9Y5N1); settings: Compound concentration 10.0 uM
[3] = target: Receptor-interacting serine/threonine-protein kinase 1 (Homo sapiens) (UniProt Q13546); settings: Compound concentration 1000.0 nM
[4] = target: Sodium-dependent serotonin transporter (Homo sapiens) (UniProt P31645); settings: Compound concentration 10.0 uM
[5] = target: Dual specificity mitogen-activated protein kinase kinase 7 (Homo sapiens) (UniProt O14733); settings: Compound concentration 1000.0 nM
Dual specificity mitogen-activated protein kinase kinase 7 (Homo sapiens), sequence (O14733 whole entry): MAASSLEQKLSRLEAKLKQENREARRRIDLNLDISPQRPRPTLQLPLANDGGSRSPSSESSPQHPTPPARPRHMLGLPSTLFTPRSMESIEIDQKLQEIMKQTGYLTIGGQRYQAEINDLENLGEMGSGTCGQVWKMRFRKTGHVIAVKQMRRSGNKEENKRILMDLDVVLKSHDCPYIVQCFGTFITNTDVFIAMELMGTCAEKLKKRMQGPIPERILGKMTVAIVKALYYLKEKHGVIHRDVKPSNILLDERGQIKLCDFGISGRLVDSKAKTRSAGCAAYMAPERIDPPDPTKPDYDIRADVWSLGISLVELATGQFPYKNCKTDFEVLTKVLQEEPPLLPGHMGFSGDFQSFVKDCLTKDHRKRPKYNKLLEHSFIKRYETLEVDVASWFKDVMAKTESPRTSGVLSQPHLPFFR

[6] = target: Serine/threonine-protein kinase PAK 4 (Homo sapiens) (UniProt O96013); settings: Compound concentration 1000.0 nM
[7] = target: 5-hydroxytryptamine receptor 1E (Homo sapiens) (UniProt P28566); settings: Compound concentration 10.0 uM
[8] = test system: Fibroblast growth factor receptor 3 (Homo sapiens), P22607 [G697C]; settings: Compound concentration 1000.0 nM
Fibroblast growth factor receptor 3 (Homo sapiens), P22607 [G697C], sequence (P22607 whole entry G697C): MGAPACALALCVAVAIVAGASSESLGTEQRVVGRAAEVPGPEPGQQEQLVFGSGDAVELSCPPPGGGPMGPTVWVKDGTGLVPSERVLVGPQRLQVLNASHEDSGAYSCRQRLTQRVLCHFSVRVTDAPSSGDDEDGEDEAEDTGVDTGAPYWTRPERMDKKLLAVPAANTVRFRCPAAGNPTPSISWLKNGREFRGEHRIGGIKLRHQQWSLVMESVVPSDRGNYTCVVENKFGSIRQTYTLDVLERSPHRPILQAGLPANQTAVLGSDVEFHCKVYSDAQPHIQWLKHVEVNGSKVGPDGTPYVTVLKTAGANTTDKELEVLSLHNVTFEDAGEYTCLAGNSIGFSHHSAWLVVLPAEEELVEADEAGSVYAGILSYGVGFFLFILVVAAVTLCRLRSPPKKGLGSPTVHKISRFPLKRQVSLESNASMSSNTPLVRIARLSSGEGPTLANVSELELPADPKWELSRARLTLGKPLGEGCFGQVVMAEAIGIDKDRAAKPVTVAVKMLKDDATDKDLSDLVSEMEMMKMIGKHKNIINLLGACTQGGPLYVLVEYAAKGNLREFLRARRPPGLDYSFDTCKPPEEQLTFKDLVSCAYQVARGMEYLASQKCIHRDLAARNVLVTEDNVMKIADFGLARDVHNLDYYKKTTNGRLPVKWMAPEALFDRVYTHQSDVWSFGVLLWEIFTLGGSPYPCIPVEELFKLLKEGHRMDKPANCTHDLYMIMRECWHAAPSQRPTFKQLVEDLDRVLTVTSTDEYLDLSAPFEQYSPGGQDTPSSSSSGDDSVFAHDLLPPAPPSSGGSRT

[9] = target: Ephrin type-A receptor 5 (Homo sapiens) (UniProt P54756); settings: Compound concentration 1000.0 nM
[10] = target: Tyrosine-protein kinase ABL1 (Homo sapiens) (UniProt P00519); settings: Compound concentration 1000.0 nM
[11] = target: Serine/threonine-protein kinase B-raf (Homo sapiens) (UniProt P15056); settings: Compound concentration 1000.0 nM
[12] = target: Serine/threonine-protein kinase 32B (Homo sapiens) (UniProt Q9NY57); settings: Compound concentration 1000.0 nM
[13] = target: Endothelin receptor type B (Homo sapiens) (UniProt P24530); assay: ETB (h) Eurofins-Cerep binding assay; parameters: ligand concentration 0.03 nM; settings: filed as agonist, Compound concentration 10.0 uM
[14] = target: LIM domain kinase 1 (Homo sapiens) (UniProt P53667); settings: Compound concentration 1000.0 nM
[15] = target: Serine/threonine-protein kinase D3 (Homo sapiens) (UniProt O94806); settings: Compound concentration 1000.0 nM
Serine/threonine-protein kinase D3 (Homo sapiens), sequence (O94806 whole entry): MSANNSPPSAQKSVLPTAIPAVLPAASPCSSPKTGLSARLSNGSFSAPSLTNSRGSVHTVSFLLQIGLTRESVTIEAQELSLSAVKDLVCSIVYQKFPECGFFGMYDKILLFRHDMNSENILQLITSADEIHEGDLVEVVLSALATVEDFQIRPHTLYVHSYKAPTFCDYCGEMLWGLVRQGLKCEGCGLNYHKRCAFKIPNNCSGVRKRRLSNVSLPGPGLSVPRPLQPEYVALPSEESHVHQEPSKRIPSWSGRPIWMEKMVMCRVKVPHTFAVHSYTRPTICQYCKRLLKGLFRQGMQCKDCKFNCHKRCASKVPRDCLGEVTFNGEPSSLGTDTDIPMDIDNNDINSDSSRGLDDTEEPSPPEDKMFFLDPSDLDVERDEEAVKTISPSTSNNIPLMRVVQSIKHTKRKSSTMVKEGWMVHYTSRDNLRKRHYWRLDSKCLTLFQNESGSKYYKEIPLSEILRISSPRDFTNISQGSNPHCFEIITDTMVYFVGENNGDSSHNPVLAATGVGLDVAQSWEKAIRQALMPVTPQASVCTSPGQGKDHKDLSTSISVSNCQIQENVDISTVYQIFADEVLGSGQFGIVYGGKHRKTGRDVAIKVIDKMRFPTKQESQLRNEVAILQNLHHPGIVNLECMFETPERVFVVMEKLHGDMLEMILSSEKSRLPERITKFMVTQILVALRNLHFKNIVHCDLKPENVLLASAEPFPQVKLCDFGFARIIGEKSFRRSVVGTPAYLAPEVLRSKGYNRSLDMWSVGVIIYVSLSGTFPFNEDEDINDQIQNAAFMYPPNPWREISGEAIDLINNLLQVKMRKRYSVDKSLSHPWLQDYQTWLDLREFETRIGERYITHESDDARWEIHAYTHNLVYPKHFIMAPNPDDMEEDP

[16] = target: Glucocorticoid receptor (Homo sapiens) (UniProt P04150); assay: GR (h) Eurofins-Cerep binding assay; parameters: ligand concentration 1.5 nM; settings: filed as agonist, Compound concentration 10.0 uM
[17] = target: Muscarinic acetylcholine receptor M3 (Homo sapiens) (UniProt P20309); assay: M3 (h) Eurofins-Cerep binding assay; parameters: ligand concentration 0.2 nM; settings: filed as antagonist, Compound concentration 10.0 uM
Muscarinic acetylcholine receptor M3 (Homo sapiens), sequence (P20309 whole entry, looked up): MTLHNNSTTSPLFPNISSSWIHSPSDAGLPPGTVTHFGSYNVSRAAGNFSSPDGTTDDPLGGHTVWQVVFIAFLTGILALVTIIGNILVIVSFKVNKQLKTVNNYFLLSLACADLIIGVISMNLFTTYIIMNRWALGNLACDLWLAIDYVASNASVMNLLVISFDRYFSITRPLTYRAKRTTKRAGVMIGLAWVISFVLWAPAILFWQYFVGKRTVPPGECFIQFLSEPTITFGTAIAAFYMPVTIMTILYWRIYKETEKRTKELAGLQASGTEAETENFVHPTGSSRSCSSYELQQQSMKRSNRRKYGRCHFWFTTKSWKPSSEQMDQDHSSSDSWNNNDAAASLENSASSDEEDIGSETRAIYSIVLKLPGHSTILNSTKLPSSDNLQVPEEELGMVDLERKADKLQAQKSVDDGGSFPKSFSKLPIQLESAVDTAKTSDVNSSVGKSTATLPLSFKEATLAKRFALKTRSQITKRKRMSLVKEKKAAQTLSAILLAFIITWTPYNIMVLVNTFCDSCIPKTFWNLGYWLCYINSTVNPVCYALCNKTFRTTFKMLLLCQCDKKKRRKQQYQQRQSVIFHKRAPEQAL

[18] = target: Serine/threonine-protein kinase Nek4 (Homo sapiens) (UniProt P51957); settings: Compound concentration 1000.0 nM
[19] = target: ALK tyrosine kinase receptor (Homo sapiens) (UniProt Q9UM73); settings: Compound concentration 1000.0 nM
ALK tyrosine kinase receptor (Homo sapiens), sequence (Q9UM73 19-1620 limits assumed): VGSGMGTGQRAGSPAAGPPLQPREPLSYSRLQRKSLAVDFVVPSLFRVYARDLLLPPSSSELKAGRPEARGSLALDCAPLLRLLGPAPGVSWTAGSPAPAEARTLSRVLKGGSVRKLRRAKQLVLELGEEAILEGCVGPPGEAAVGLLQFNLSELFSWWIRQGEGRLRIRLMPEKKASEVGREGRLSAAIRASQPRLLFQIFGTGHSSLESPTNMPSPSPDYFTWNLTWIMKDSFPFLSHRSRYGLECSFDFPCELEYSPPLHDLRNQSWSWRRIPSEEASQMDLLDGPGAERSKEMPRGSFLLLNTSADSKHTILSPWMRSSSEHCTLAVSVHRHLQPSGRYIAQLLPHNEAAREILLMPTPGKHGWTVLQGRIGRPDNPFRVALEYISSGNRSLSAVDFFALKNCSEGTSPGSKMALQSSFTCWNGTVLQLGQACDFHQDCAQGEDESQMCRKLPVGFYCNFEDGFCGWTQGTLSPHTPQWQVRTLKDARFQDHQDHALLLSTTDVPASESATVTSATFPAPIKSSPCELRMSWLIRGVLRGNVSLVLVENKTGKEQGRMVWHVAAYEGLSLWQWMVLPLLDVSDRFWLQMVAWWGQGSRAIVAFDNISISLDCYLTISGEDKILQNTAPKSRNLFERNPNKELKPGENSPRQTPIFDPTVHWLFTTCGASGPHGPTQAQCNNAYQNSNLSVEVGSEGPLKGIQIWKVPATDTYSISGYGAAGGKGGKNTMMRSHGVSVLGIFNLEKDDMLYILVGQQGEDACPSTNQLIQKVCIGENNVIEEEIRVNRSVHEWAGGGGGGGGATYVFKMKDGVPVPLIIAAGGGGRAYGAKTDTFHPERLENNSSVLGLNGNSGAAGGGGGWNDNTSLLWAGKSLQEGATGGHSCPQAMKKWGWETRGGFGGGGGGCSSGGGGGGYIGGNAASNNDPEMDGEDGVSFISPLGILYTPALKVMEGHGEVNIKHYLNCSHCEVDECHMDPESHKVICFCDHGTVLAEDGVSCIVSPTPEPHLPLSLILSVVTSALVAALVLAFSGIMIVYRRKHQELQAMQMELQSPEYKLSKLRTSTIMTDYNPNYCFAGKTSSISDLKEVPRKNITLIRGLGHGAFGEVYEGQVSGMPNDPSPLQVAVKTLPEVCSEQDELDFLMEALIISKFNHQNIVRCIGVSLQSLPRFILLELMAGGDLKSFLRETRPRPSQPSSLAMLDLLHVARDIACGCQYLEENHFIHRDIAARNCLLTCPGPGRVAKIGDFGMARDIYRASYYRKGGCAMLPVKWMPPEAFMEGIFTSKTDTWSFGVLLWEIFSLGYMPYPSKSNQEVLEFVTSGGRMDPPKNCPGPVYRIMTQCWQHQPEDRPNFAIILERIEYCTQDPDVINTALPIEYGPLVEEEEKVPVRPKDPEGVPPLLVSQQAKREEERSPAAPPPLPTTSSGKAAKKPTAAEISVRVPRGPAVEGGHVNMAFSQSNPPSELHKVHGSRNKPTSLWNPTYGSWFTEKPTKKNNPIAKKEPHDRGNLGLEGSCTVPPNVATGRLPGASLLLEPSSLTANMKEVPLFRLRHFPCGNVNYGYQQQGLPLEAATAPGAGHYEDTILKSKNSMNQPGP

[20] = target: T1, Alpha-2B adrenergic receptor (Homo sapiens) (UniProt P18089); settings: Compound concentration 10.0 uM
T1 sequence (whole entry): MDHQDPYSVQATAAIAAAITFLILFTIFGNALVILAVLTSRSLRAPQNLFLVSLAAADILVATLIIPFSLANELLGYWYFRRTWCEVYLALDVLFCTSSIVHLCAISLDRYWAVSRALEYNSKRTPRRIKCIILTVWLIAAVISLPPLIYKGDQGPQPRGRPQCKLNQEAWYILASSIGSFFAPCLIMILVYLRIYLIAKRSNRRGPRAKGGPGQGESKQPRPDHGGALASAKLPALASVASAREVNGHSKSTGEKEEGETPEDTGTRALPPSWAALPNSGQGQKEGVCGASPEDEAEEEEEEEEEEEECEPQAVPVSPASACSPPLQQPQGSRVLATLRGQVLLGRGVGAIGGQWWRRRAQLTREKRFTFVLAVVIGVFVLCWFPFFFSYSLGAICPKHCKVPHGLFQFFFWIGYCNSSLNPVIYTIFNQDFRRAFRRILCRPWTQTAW

[21] = target: T2, 5-hydroxytryptamine receptor 2C (Homo sapiens) (UniProt P28335); settings: Compound concentration 10.0 uM
T2 sequence (whole entry): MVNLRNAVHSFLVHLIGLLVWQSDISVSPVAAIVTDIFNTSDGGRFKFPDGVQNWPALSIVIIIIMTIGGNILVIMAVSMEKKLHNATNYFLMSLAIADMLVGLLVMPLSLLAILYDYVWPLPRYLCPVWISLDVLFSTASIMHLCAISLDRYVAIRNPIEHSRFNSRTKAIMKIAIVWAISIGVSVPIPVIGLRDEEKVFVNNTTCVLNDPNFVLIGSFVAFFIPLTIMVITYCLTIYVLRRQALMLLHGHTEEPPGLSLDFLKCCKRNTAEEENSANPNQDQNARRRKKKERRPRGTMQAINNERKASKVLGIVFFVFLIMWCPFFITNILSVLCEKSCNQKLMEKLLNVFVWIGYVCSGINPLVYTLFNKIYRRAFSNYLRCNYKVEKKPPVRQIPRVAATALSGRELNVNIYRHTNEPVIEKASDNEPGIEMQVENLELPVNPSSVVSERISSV

[22] = target: 5-hydroxytryptamine receptor 5A (Homo sapiens) (UniProt P47898); settings: Compound concentration 10.0 uM
[23] = target: T3, Muscarinic acetylcholine receptor M2 (Homo sapiens) (UniProt P08172); settings: Compound concentration 10.0 uM
T3 sequence (whole entry): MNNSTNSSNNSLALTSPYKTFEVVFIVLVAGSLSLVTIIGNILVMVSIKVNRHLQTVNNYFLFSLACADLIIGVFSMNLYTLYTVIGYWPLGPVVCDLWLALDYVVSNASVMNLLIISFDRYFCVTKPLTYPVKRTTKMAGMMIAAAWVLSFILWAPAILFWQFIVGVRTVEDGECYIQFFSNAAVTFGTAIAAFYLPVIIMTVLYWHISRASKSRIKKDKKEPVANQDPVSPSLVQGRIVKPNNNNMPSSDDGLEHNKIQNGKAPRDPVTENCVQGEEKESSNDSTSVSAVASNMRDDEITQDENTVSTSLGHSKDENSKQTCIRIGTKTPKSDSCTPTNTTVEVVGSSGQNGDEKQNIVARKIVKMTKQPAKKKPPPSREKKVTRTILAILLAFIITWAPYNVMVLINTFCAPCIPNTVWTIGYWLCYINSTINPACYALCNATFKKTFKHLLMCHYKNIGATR

[24] = target: 5-hydroxytryptamine receptor 6 (Homo sapiens) (UniProt P50406); settings: Compound concentration 10.0 uM
[25] = target: Sodium-dependent dopamine transporter (Homo sapiens) (UniProt Q01959); settings: Compound concentration 10.0 uM

Receptor-interacting serine/threonine-protein kinase 1 (Homo sapiens), sequence (Q13546 whole entry): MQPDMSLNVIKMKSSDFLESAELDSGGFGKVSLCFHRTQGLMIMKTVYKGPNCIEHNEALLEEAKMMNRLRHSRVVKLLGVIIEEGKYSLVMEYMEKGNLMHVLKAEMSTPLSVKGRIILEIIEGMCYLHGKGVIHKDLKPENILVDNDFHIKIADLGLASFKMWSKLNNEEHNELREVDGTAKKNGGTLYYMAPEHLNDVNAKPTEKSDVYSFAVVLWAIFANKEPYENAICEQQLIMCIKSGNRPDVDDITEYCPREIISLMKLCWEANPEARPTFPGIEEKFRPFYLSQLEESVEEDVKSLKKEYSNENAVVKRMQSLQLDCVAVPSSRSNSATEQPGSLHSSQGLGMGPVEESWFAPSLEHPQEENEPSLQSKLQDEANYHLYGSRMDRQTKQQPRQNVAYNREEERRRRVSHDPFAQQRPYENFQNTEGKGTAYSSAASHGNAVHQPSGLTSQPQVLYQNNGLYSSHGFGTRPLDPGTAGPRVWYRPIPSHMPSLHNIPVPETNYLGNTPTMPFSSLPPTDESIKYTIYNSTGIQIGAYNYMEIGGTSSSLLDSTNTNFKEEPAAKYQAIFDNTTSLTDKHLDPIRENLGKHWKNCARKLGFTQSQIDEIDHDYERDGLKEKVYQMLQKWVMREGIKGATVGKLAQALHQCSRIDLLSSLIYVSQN

Compound | inhibition [1] [%] | residual activity [3] [%] | residual activity [5] [%] | residual activity [6] [%] | residual activity [8] [%] | residual activity [9] [%] | residual activity [10] [%] | residual activity [11] [%] | residual activity [12] [%] | % Inhibition of Control Specific Binding (Mean n=2) [13] [%] | residual activity [14] [%] | residual activity [15] [%] | % Inhibition of Control Specific Binding (Mean n=2) [16] [%] | % Inhibition of Control Specific Binding (Mean n=2) [17] [%] | residual activity [18] [%] | residual activity [19] [%] | inhibition [20] [%] | further results
COc1ccc2c(c1)O[C@H](c1ccc(OC)c(OC)c1)C[C@@H]2NC(=O)C1(c2ccc3c(c2)OC(F)(F)O3)CC1 [A-1596584] | -9.84 | 100 | 100 | 100 | 93 | 100 | 100 | 92 | 100 | -9 | 98 | 100 | 13.7 | -12.8 | 86 | 100 | 19.6 | inhibition [2]: 10.4%; inhibition [4]: 5.75%; inhibition [7]: 1.27%
COc1ccc2c(c1)O[C@@H](c1ccc(OC)c(OC)c1)C[C@H]2NC(=O)C1(c2ccc3c(c2)OC(F)(F)O3)CC1 [A-1596586] | -7.29 | 93 | 88 | 89 | 95 | 100 | 86 | 100 | 100 | -9.1 | 100 | 97 | 22.1 | -3.3 | 75 | 100 | 37.5 | inhibition [21]: -2.28%; inhibition [22]: -7.95%; inhibition [23]: -9.38%; inhibition [24]: -7.58%; inhibition [25]: 6.33%
